Assays:
Assay in all cases: In Vitro Activity Kinase Assay
[1] = target: Fibroblast growth factor receptor 3 (Homo sapiens, UniProt P22607)
Method: (§1) In vitro kinase assay profiled against a panel of different kinase binding assay using Ambit kinomeScan technology. Biochemical IC50 values were determined using the Z'-lyte assays format from Invitrogen.

[2] = target: Vascular endothelial growth factor receptor 1 (Homo sapiens, UniProt P17948)
Method: as §1

[3] = target: Mitogen-activated protein kinase 7 (Homo sapiens, UniProt Q13164)
Method: as §1

[4] = target: Hepatocyte growth factor receptor (Homo sapiens, UniProt P08581)
Method: as §1

[5] = target: Fibroblast growth factor receptor 4 (Homo sapiens, UniProt P22455)
Method: as §1

[6] = target: Vascular endothelial growth factor receptor 3 (Homo sapiens, UniProt P35916)
Method: as §1

[7] = target: Tyrosine-protein kinase Blk (Homo sapiens, UniProt P51451)
Method: as §1

[8] = target: Fibroblast growth factor receptor 1 (Homo sapiens, UniProt P11362)
Method: as §1

[9] = target: Platelet-derived growth factor receptor beta (Homo sapiens, UniProt P09619)
Method: as §1

[10] = target: Mast/stem cell growth factor receptor Kit (Homo sapiens, UniProt P10721)
Method: as §1

[11] = target: Vascular endothelial growth factor receptor 2 (Homo sapiens, UniProt P35968)
Method: as §1

[12] = target: Fibroblast growth factor receptor 2 (Homo sapiens, UniProt P21802)
Method: as §1

Sequence of Vascular endothelial growth factor receptor 2 (P35968 whole entry): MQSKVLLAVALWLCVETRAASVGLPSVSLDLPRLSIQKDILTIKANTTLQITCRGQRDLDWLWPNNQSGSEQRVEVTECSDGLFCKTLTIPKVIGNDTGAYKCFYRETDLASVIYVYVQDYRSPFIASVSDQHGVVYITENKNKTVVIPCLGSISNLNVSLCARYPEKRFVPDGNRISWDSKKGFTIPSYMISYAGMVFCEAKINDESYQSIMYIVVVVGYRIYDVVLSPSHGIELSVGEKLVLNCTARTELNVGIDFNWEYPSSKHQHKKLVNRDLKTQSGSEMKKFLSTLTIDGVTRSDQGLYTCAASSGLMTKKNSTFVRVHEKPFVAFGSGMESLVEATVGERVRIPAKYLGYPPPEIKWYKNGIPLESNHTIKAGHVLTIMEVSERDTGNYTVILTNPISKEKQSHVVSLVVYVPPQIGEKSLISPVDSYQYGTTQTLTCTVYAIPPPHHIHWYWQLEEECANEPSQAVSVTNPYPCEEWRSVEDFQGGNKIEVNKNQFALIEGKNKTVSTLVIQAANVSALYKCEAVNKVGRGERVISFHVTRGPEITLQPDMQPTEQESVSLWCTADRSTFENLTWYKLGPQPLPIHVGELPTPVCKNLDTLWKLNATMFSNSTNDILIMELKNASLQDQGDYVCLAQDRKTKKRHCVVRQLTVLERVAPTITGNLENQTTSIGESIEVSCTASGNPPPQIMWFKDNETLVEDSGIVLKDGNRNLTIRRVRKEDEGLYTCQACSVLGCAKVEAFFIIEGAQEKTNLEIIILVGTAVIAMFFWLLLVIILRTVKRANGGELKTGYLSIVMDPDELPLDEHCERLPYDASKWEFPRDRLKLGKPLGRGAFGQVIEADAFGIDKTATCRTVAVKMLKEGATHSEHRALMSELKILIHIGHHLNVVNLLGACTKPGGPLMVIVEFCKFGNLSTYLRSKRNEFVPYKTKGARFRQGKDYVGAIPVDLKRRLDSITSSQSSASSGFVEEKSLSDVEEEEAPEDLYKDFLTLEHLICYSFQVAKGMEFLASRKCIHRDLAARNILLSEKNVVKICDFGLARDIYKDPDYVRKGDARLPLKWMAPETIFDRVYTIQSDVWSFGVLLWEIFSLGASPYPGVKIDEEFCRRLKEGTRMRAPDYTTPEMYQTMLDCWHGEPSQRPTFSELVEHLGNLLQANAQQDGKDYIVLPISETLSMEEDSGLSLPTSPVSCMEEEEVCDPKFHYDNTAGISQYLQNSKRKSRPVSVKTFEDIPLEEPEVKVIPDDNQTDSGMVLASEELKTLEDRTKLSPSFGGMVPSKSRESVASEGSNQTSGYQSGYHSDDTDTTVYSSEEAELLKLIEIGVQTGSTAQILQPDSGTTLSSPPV
Sequence of Vascular endothelial growth factor receptor 3 (P35916 whole entry): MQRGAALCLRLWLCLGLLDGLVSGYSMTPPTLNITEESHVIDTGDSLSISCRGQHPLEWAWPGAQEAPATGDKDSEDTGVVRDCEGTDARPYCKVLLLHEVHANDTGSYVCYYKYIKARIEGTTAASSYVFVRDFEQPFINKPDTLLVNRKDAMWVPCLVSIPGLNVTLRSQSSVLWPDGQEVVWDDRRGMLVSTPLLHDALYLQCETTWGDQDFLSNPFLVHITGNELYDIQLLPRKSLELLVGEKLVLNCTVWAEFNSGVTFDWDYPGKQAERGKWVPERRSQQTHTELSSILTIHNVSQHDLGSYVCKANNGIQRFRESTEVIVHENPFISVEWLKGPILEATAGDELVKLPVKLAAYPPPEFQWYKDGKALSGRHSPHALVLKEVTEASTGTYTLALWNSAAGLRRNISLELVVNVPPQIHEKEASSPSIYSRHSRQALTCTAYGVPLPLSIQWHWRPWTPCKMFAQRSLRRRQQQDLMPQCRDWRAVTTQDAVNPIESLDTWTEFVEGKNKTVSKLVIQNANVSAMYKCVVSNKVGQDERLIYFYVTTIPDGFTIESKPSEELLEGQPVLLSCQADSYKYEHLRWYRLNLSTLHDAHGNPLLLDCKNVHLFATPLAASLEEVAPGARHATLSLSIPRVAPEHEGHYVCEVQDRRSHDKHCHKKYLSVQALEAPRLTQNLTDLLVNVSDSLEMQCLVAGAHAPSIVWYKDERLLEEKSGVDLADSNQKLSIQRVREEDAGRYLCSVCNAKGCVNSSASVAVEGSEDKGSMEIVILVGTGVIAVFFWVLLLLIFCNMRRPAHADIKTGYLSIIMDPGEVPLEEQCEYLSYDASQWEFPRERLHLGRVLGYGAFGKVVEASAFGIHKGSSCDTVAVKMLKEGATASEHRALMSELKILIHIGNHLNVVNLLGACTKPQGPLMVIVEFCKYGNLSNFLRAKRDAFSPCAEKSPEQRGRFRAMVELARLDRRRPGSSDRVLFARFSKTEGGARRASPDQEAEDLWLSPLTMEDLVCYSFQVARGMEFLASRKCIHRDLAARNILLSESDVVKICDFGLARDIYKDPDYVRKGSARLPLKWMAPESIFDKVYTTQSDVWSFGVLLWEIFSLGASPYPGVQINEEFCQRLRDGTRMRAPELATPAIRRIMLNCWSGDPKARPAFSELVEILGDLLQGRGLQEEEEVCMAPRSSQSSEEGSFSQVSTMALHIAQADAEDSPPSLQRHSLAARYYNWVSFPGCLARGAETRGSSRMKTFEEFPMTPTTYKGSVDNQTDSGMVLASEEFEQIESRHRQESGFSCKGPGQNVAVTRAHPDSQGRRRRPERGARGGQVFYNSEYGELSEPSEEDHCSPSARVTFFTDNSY
Sequence of Platelet-derived growth factor receptor beta (P09619 whole entry): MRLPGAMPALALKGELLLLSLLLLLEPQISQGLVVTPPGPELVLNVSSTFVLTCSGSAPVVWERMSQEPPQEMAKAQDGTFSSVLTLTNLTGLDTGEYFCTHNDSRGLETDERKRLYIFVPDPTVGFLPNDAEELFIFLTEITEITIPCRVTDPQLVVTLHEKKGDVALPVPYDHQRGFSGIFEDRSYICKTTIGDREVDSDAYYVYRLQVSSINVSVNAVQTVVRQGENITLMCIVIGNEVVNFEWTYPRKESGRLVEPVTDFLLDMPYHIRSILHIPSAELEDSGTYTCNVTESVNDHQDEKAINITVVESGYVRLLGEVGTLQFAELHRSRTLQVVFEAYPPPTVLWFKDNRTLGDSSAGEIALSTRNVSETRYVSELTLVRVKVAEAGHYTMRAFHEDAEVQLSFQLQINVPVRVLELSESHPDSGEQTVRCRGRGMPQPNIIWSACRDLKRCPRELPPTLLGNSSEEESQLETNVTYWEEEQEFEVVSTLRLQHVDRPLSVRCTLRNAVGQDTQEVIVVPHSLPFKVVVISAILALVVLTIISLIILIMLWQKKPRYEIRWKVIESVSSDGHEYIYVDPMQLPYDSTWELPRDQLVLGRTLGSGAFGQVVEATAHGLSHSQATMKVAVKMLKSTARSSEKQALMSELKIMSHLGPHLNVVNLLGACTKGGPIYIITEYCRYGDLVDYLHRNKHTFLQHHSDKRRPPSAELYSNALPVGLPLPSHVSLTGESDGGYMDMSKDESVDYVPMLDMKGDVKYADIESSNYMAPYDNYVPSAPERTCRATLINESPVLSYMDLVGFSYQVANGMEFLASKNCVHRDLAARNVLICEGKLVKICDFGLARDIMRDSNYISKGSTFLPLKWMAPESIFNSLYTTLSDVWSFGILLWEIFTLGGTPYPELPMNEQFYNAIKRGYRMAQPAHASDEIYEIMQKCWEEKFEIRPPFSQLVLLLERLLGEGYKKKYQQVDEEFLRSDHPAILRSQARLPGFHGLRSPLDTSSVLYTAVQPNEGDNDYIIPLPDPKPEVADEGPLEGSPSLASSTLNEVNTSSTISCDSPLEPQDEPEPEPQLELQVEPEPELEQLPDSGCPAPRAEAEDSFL
Sequence of Fibroblast growth factor receptor 1 (P11362 whole entry): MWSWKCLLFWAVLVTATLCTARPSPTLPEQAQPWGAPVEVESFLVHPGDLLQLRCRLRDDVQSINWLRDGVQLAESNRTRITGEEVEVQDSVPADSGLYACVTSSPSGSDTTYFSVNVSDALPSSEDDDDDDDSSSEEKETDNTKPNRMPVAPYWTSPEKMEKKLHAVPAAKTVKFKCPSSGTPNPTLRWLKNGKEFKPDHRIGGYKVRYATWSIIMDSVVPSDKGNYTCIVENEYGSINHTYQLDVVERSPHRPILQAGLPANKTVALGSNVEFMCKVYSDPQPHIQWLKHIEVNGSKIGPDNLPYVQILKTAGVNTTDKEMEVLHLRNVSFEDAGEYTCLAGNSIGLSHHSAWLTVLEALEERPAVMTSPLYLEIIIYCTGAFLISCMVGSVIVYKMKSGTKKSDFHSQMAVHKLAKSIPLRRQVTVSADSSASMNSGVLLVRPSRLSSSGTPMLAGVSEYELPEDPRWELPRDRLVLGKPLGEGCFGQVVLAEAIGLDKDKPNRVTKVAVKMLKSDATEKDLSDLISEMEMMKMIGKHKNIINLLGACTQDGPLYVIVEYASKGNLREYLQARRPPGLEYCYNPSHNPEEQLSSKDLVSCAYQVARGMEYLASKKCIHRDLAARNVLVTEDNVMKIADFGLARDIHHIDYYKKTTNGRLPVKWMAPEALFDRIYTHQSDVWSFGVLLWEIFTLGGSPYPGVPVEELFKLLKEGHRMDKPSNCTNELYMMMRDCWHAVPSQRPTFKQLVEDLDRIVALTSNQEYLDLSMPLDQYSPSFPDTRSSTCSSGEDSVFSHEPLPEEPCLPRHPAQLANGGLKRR

## CCNCCCCNc1ncc2c(n1)N(Cc1cccc(NC(=O)CC)c1)C(=O)N(c1c(Cl)c(OC)cc(OC)c1Cl)C2 [FRIN-1]
[1]
  Kd: 5.4 nM
[2]
  Kd: 49 nM
[3]
  Kd: 130 nM
[4]
  Kd: 1400 nM
[5]
  Kd: 280 nM
[6]
  Kd: 340 nM
[7]
  Kd: 2300 nM
[8]
  Kd: 3.1 nM
[9]
  Kd: 480 nM
[10]
  Kd: 250 nM
[11]
  Kd: 470 nM
[12]
  Kd: 5.6 nM

Reference: BindingDB's records for doi:10.1016/j.chembiol.2010.02.007 (Harvard Medical School, 2010)
